Measured values from article PMC10949855 (Journal of veterinary pharmacology and therapeutics, 2022).

Test system: healthy dogs
Assay: Sedation score
Assay type: in vivo, dogs (Beagles)
[1] = IV inhibitors, 0.4 mg/kg IV after CYP inhibitors, 0.5 hr
[2] = IV inhibitors, 0.4 mg/kg IV after CYP inhibitors, 1 hr
[3] = IV inhibitors, 0.4 mg/kg IV after CYP inhibitors, 1.5 hr
[4] = IV inhibitors, 0.4 mg/kg IV after CYP inhibitors, 2 hr
[5] = IV inhibitors, 0.4 mg/kg IV after CYP inhibitors, 3 hr
[6] = IV inhibitors, 0.4 mg/kg IV after CYP inhibitors, 4 hr
[7] = IV inhibitors, 0.4 mg/kg IV after CYP inhibitors, 5 hr
[8] = IV inhibitors, 0.4 mg/kg IV after CYP inhibitors, 6 hr
[9] = IV inhibitors, 0.4 mg/kg IV after CYP inhibitors, 7 hr
[10] = IV inhibitors, 0.4 mg/kg IV after CYP inhibitors, 8 hr
[11] = IV inhibitors, 0.4 mg/kg IV after CYP inhibitors, 9 hr
[12] = IV inhibitors, 0.4 mg/kg IV after CYP inhibitors, 10 hr
[13] = IV inhibitors, 0.4 mg/kg IV after CYP inhibitors, 11 hr
[14] = IV inhibitors, 0.4 mg/kg IV after CYP inhibitors, 12 hr
[15] = IV inhibitors, 0.4 mg/kg IV after CYP inhibitors, 24 hr

## Oc1ccc2c(c1)[C@@]13CCCC[C@@]1(O)[C@@H](C2)N(CC1CCC1)CC3 [butorphanol]
[1]
  number of dogs with sedation score 0: 0
  number of dogs with sedation score 1: 6
  number of dogs with sedation score 2: 0
  number of dogs with sedation score 3: 0
[2]
  number of dogs with sedation score 0: 0
  number of dogs with sedation score 1: 6
  number of dogs with sedation score 2: 0
  number of dogs with sedation score 3: 0
[3]
  number of dogs with sedation score 0: 0
  number of dogs with sedation score 1: 6
  number of dogs with sedation score 2: 0
  number of dogs with sedation score 3: 0
[4]
  number of dogs with sedation score 0: 0
  number of dogs with sedation score 1: 4
  number of dogs with sedation score 2: 2
  number of dogs with sedation score 3: 0
[5]
  number of dogs with sedation score 0: 0
  number of dogs with sedation score 1: 5
  number of dogs with sedation score 2: 1
  number of dogs with sedation score 3: 0
[6]
  number of dogs with sedation score 0: 3
  number of dogs with sedation score 1: 3
  number of dogs with sedation score 2: 0
  number of dogs with sedation score 3: 0
[7]
  number of dogs with sedation score 0: 6
  number of dogs with sedation score 1: 0
  number of dogs with sedation score 2: 0
  number of dogs with sedation score 3: 0
[8]
  number of dogs with sedation score 0: 6
  number of dogs with sedation score 1: 0
  number of dogs with sedation score 2: 0
  number of dogs with sedation score 3: 0
[9]
  number of dogs with sedation score 0: 6
  number of dogs with sedation score 1: 0
  number of dogs with sedation score 2: 0
  number of dogs with sedation score 3: 0
[10]
  number of dogs with sedation score 0: 6
  number of dogs with sedation score 1: 0
  number of dogs with sedation score 2: 0
  number of dogs with sedation score 3: 0
[11]
  number of dogs with sedation score 0: 6
  number of dogs with sedation score 1: 0
  number of dogs with sedation score 2: 0
  number of dogs with sedation score 3: 0
[12]
  number of dogs with sedation score 0: 6
  number of dogs with sedation score 1: 0
  number of dogs with sedation score 2: 0
  number of dogs with sedation score 3: 0
[13]
  number of dogs with sedation score 0: 6
  number of dogs with sedation score 1: 0
  number of dogs with sedation score 2: 0
  number of dogs with sedation score 3: 0
[14]
  number of dogs with sedation score 0: 6
  number of dogs with sedation score 1: 0
  number of dogs with sedation score 2: 0
  number of dogs with sedation score 3: 0
[15]
  number of dogs with sedation score 0: 6
  number of dogs with sedation score 1: 0
  number of dogs with sedation score 2: 0
  number of dogs with sedation score 3: 0
SC 0.4 mg/kg
  time with moderate sedation or greater in at least 1 dog: 1.5 to 2 h
SC 0.4 mg/kg, 0.5 hr
  number of dogs with sedation score 0: 0
  number of dogs with sedation score 1: 6
  number of dogs with sedation score 2: 0
  number of dogs with sedation score 3: 0
SC 0.4 mg/kg, 1 hr
  number of dogs with sedation score 0: 0
  number of dogs with sedation score 1: 6
  number of dogs with sedation score 2: 0
  number of dogs with sedation score 3: 0
SC 0.4 mg/kg, 1.5 hr
  number of dogs with sedation score 0: 0
  number of dogs with sedation score 1: 5
  number of dogs with sedation score 2: 1
  number of dogs with sedation score 3: 0
SC 0.4 mg/kg, 2 hr
  number of dogs with sedation score 0: 0
  number of dogs with sedation score 1: 5
  number of dogs with sedation score 2: 1
  number of dogs with sedation score 3: 0
SC 0.4 mg/kg, 3 hr
  number of dogs with sedation score 0: 1
  number of dogs with sedation score 1: 5
  number of dogs with sedation score 2: 0
  number of dogs with sedation score 3: 0
SC 0.4 mg/kg, 4 hr
  number of dogs with sedation score 0: 2
  number of dogs with sedation score 1: 4
  number of dogs with sedation score 2: 0
  number of dogs with sedation score 3: 0
SC 0.4 mg/kg, 5 hr
  number of dogs with sedation score 0: 2
  number of dogs with sedation score 1: 4
  number of dogs with sedation score 2: 0
  number of dogs with sedation score 3: 0
SC 0.4 mg/kg, 6 hr
  number of dogs with sedation score 0: 4
  number of dogs with sedation score 1: 2
  number of dogs with sedation score 2: 0
  number of dogs with sedation score 3: 0
SC 0.4 mg/kg, 7 hr
  number of dogs with sedation score 0: 6
  number of dogs with sedation score 1: 0
  number of dogs with sedation score 2: 0
  number of dogs with sedation score 3: 0
SC 0.4 mg/kg, 8 hr
  number of dogs with sedation score 0: 6
  number of dogs with sedation score 1: 0
  number of dogs with sedation score 2: 0
  number of dogs with sedation score 3: 0
SC 0.4 mg/kg, 9 hr
  number of dogs with sedation score 0: 6
  number of dogs with sedation score 1: 0
  number of dogs with sedation score 2: 0
  number of dogs with sedation score 3: 0
SC 0.4 mg/kg, 10 hr
  number of dogs with sedation score 0: 6
  number of dogs with sedation score 1: 0
  number of dogs with sedation score 2: 0
  number of dogs with sedation score 3: 0
SC 0.4 mg/kg, 11 hr
  number of dogs with sedation score 0: 6
  number of dogs with sedation score 1: 0
  number of dogs with sedation score 2: 0
  number of dogs with sedation score 3: 0
SC 0.4 mg/kg, 12 hr
  number of dogs with sedation score 0: 6
  number of dogs with sedation score 1: 0
  number of dogs with sedation score 2: 0
  number of dogs with sedation score 3: 0
SC 0.4 mg/kg, 24 hr
  number of dogs with sedation score 0: 6
  number of dogs with sedation score 1: 0
  number of dogs with sedation score 2: 0
  number of dogs with sedation score 3: 0
